Measured values as given in the supplement of paper PMC10307832.

Assays:
Experiment in all cases: relative viability (nuclei count vs DMSO), 5 days (fraction); higher = more cells survive
BMX-IN-1 + Palbociclib = compound: C=CC(=O)Nc1cc(-n2c(=O)ccc3cnc4ccc(-c5ccc(NS(C)(=O)=O)cc5)cc4c32)ccc1C [BMX-IN-1] + CC(=O)c1c(C)c2cnc(Nc3ccc(N4CCNCC4)cn3)nc2n(C2CCCC2)c1=O [Palbociclib] (partner 0.5 µM)
Summary of the method: (§1)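 Each reported value is a median over duplicate plates. It expresses relative viability: treated-well nuclei count divided by vehicle-well nuclei count. Lung cancer cell lines in 1536-well plates were dosed by pin tool a day after seeding, alone with one drug or with a fixed anchor-drug dose plus five library-drug doses (not always all listed) in √10 steps, and nuclei were counted after 5 days.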

BMX-IN-1 + Vorinostat = compound: C=CC(=O)Nc1cc(-n2c(=O)ccc3cnc4ccc(-c5ccc(NS(C)(=O)=O)cc5)cc4c32)ccc1C [BMX-IN-1] + O=C(CCCCCCC(=O)Nc1ccccc1)NO [Vorinostat] (partner 1 µM)
Summary of the method: as §1

PAC-1 + Vorinostat = compound: C=CCc1cccc(/C=N/NC(=O)CN2CCN(Cc3ccccc3)CC2)c1O [PAC-1] + O=C(CCCCCCC(=O)Nc1ccccc1)NO [Vorinostat] (partner 1 µM)
Summary of the method: as §1

PAC-1 + AZD7762 = compound: C=CCc1cccc(/C=N/NC(=O)CN2CCN(Cc3ccccc3)CC2)c1O [PAC-1] + NC(=O)Nc1cc(-c2cccc(F)c2)sc1C(=O)N[C@H]1CCCNC1 [AZD7762] (partner 0.2 µM)
Summary of the method: as §1

BMX-IN-1 + Navitoclax = compound: C=CC(=O)Nc1cc(-n2c(=O)ccc3cnc4ccc(-c5ccc(NS(C)(=O)=O)cc5)cc4c32)ccc1C [BMX-IN-1] + CC1(C)CCC(c2ccc(Cl)cc2)=C(CN2CCN(c3ccc(C(=O)NS(=O)(=O)c4ccc(N[C@H](CCN5CCOCC5)CSc5ccccc5)c(S(=O)(=O)C(F)(F)F)c4)cc3)CC2)C1 [Navitoclax] (partner 0.5 µM)
Summary of the method: as §1

Row | Cell Line | relative viability (BMX-IN-1 + Palbociclib; first compound 0.02 µM) | relative viability (BMX-IN-1 + Palbociclib; first compound 0.2 µM) | relative viability (BMX-IN-1 + Palbociclib; first compound 0.6325 µM) | relative viability (BMX-IN-1 + Palbociclib; first compound 2 µM) | relative viability (BMX-IN-1 + Vorinostat; first compound 0.02 µM) | relative viability (BMX-IN-1 + Vorinostat; first compound 0.2 µM) | relative viability (BMX-IN-1 + Vorinostat; first compound 0.6325 µM) | relative viability (BMX-IN-1 + Vorinostat; first compound 2 µM) | relative viability (PAC-1 + Vorinostat; first compound 0.02 µM) | relative viability (PAC-1 + Vorinostat; first compound 0.06325 µM) | relative viability (PAC-1 + Vorinostat; first compound 0.2 µM) | relative viability (PAC-1 + Vorinostat; first compound 2 µM) | relative viability (PAC-1 + AZD7762; first compound 0.02 µM) | relative viability (PAC-1 + AZD7762; first compound 0.06325 µM) | relative viability (PAC-1 + AZD7762; first compound 0.2 µM) | relative viability (PAC-1 + AZD7762; first compound 2 µM) | relative viability (BMX-IN-1 + Navitoclax; first compound 0.02 µM) | relative viability (BMX-IN-1 + Navitoclax; first compound 0.2 µM) | relative viability (BMX-IN-1 + Navitoclax; first compound 0.6325 µM) | relative viability (BMX-IN-1 + Navitoclax; first compound 2 µM)
1 | NCI-H2085 | 0.473 | 0.438 | 0.484 | 0.46 | 0.816 | 0.771 | 0.821 | 0.831 | 0.791 | 0.789 | 0.737 | 0.822 | 0.994 | 1 | 0.907 | 1.1 | 1.23 | 1.31 | 1.2 | 1.07
2 | LCLC-97TM1 | 0.247 | 0.3 | 0.227 | 0.217 | 0.724 | 1.08 | 1.04 | 0.842 | 0.776 | 0.805 | – | 0.761 | 0.211 | 0.267 | 0.23 | 0.345 | 0.349 | 0.429 | 0.322 | 0.46
3 | EKVX | 0.424 | 0.37 | 0.773 | 0.416 | 0.668 | 0.653 | 0.957 | 0.698 | 0.768 | 0.776 | 0.793 | 0.69 | 0.638 | 0.75 | 0.664 | 0.62 | 0.979 | 1.13 | 0.966 | 1
4 | PC-14 | 0.583 | 0.478 | 0.58 | 0.47 | 0.863 | 0.86 | 1.01 | 0.0519 | 0.816 | 0.764 | 0.629 | 0.743 | 0.382 | 0.322 | 0.45 | 0.343 | 1.02 | 1.29 | 1.01 | 1.06
5 | NCI-H1355 | 0.394 | 0.392 | 0.399 | 0.404 | 0.705 | 0.706 | 0.697 | 0.76 | 0.61 | 0.625 | 0.572 | 0.665 | 0.634 | 0.721 | 0.795 | 0.785 | 1 | 0.969 | 0.94 | 0.99
6 | HARA | 0.304 | 0.299 | 0.258 | 0.247 | 0.507 | 0.549 | 0.446 | 0.506 | – | 0.56 | 0.529 | 0.526 | 0.229 | 0.304 | 0.0838 | 0.457 | 1.22 | 1.36 | 1.09 | 1.08
7 | H3255 | 0.311 | 0.318 | 0.349 | 0.299 | 0.787 | 0.812 | 0.902 | 0.76 | 0.923 | 0.762 | 0.87 | 0.593 | 0.993 | 0.802 | 0.772 | 0.931 | 0.51 | 0.595 | 0.544 | 0.633
8 | NCI-H1666 | 0.64 | 0.672 | 0.606 | 0.628 | 1.03 | 1.05 | 1.13 | 1.15 | 1.08 | 1.03 | 1 | 1.09 | 0.905 | 0.816 | 0.896 | 0.809 | 1.09 | 0.979 | 0.938 | 0.92
9 | NCI-H1993 | 0.706 | 0.683 | 0.646 | 0.55 | 0.767 | 0.9 | 0.85 | 0.898 | 0.821 | 0.895 | 0.658 | 0.652 | 0.829 | 0.797 | 0.748 | 0.837 | 1.07 | 0.875 | – | 0.958
10 | HCC-366 | 0.535 | 0.385 | 0.454 | 0.485 | 0.791 | 0.342 | 0.373 | 0.33 | 0.396 | 0.339 | 0.258 | 0.449 | 0.265 | 0.309 | 0.251 | 0.312 | 1.54 | 1.29 | 1.15 | 1.05
11 | EMC-BAC-2 | 0.543 | 0.537 | 0.528 | 0.516 | 0.497 | 0.58 | 0.414 | 0.45 | 0.414 | 0.531 | 0.774 | 0.478 | 1.13 | 1.24 | 1.19 | 1.15 | 1.41 | 1.35 | 1.08 | 1.19
12 | NCI-H1975 | 1 | 0.655 | 0.685 | 0.698 | 0.707 | 0.754 | 0.737 | 0.703 | 0.71 | 0.713 | 0.765 | 0.77 | 0.669 | 0.666 | 0.755 | 0.698 | 1.34 | 1.19 | 1.34 | 1
13 | NCI-H1944 | 0.35 | 0.357 | 0.327 | 0.288 | 0.519 | 0.659 | 0.598 | 0.578 | 0.537 | 0.555 | 0.542 | 0.642 | 0.428 | 0.542 | 0.502 | 0.516 | 0.992 | 1.11 | 1.02 | 1.08
14 | NCI-H1395 | 0.702 | 0.62 | 0.572 | 0.588 | 0.764 | 0.708 | 0.942 | 0.746 | 0.704 | 0.747 | 0.784 | 0.623 | 0.427 | 0.415 | 0.352 | 0.381 | 0.972 | 1.09 | 1.07 | 1.14
15 | NCI-H1437 | 0.326 | 0.294 | 0.354 | 0.328 | 0.964 | 0.866 | 0.896 | 0.949 | 0.831 | 0.816 | 0.717 | 0.563 | 1.11 | 1.09 | 1.12 | 0.844 | 1.3 | 1.33 | 1.07 | 1.18
16 | NCI-H2347 | 0.443 | 0.406 | 0.458 | 0.393 | 0.725 | 0.716 | 0.586 | 0.596 | 0.589 | 0.593 | 0.606 | 0.657 | 0.825 | 0.756 | 0.675 | 0.902 | 0.978 | 0.887 | 0.785 | 0.871
